Data from patent publication US5486597A, “Tetrapeptide derivatives and analogues” (James Black Foundation Limited, priority 1990, dated 1996).
Non-standard residues stand in square brackets, D forms with d. Residues, ends and D or L forms follow the SMILES beside them. *: point of attachment. 2Nal = N[C@@H](Cc1ccc2ccccc2c1)C(=O)O; Boc = CC(C)(C)OC(=O)*

Tests used:
Type in all cases: cell-based
[1] = biological target: T1, cholecystokinin receptors (Cavia porcellus, UniProt Q63931); assay: CCK-antagonist activity in isolated guinea-pig gall-bladder strip preparations; conditions: guinea-pig gall-bladder strips; CCK-8 as agonist; test compound incubated for 60 minutes; standard errors less than 5%
T1 construct: Isolated, strip preparations were prepared from gall-bladders removed from male Dunkin-Hartley guinea-pigs; from tissue; host or cells: guinea-pig gall-bladder strips
T1 sequence (Q63931 1-430): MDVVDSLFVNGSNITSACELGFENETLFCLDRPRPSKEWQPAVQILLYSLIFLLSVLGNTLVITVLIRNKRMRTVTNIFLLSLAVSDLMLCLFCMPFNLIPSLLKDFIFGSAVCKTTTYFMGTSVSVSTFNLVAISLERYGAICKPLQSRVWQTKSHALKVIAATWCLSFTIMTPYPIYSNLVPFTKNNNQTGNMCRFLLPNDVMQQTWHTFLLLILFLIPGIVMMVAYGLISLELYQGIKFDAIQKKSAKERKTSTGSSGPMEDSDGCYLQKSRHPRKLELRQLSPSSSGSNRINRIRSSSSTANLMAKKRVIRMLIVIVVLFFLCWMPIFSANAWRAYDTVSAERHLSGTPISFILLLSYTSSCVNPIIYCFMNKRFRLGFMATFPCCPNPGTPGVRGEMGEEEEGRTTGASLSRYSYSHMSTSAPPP
Summary of the method: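 Male Dunkin-Hartley guinea-pig gall-bladder strips under 1 g isometric tension in Krebs (0.5 mM Ca²⁺), 37° C, 95% O2/5% CO2, stabilised 90 min. Cumulative CCK-8 concentration-effect curves without and with test compound (60 min preincubation); antagonism expressed as […] by modified competitive analysis.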

gastrin receptor [2] = biological target: T2, gastrin receptor (Mus musculus, UniProt P56481); assay: mouse stomach assay for gastrin activity (isolated stomach, acid secretion); conditions: for Acid seretion at 10^-5 M test compound, relative to pentagastrin (%): mouse stomach, NS = not significant
T2 construct: assayed for gastrin activity using the mouse stomach assay; from tissue; host or cells: isolated mouse stomach
T2 sequence (P56481 1-453): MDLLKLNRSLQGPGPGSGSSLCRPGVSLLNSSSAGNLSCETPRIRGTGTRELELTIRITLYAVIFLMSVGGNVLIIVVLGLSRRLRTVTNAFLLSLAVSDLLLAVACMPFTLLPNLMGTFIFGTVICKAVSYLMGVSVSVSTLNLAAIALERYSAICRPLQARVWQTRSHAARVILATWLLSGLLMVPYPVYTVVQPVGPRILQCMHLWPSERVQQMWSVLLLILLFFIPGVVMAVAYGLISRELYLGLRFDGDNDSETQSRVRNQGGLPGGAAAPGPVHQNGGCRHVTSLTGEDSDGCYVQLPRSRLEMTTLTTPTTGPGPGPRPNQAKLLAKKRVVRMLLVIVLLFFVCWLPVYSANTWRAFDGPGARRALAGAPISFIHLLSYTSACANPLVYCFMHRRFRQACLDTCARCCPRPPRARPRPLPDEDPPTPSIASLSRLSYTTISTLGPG
Protocol: The compounds were assayed for gastrin activity using the mouse stomach assay as described by Black, J. W. and Shankley, N. P., Br. J. Pharmacol., 86, 571-579, (1985), and also in the guinea-pig fundus assay, as follows: […]

gastrin receptor [3] = biological target: T3, gastrin receptor (Cavia porcellus, UniProt H0VZC5); assay: guinea-pig fundus assay for gastrin activity (stomach muscle strips); conditions: 10^-8 M devazepide present, 60 minute equilibration, agonist e.g. pentagastrin, standard errors less than 5%
T3 construct: Strips of muscle (approximately 2.5 cm by 1 cm) are removed from the proximal area of the stomach; from tissue; host or cells: guinea-pig proximal stomach (fundus) muscle strips
T3 sequence (H0VZC5 1-426): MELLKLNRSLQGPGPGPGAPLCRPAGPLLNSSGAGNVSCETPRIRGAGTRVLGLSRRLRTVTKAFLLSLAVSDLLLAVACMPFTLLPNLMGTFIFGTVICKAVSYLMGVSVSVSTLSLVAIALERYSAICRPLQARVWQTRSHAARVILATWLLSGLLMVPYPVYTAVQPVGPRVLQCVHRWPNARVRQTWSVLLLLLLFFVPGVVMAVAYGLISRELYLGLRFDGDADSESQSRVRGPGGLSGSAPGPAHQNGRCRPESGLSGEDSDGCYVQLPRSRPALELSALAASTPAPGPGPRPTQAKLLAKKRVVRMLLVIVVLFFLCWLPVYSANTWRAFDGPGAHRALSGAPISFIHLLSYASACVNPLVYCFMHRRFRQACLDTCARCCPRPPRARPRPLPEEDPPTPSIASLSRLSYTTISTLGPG
Protocol: The compounds were assayed for gastrin activity using the mouse stomach assay as described by Black, J. W. and Shankley, N. P., Br. J. Pharmacol., 86, 571-579, (1985), and also in the guinea-pig fundus assay, as follows:
The stomach is removed from a male Dunkin-Hartley guinea-pig (250-500 g), and Krebs solution is injected through a hypodermic needle under the top stomach muscle layer. The composition (mM) of the Krebs solution is as follows: Na^+ 143, K^+ 5.9, Ca^2+ 2.5, Mg^2+ 1.2, Cl^- 128, H2 PO4^- 2.2, HCO3^- 24.9, SO4^2- 1.2, dextrose 10. Strips of muscle (approximately 2.5 cm by 1 cm) are removed from the proximal area of the stomach (one from each side) and tied with cotton thread to isotonic transducers under an initial loading tension of 0.35 g.
The preparation is immersed in 20 mls of Krebs solution containing 10^-8 M devazepide (25 μl 2×10^-3 M devazepide/100% DMF solution in 5 dm^3 Krebs) and gassed with 95% O2 /5% CO2. The function of the devazepide is to block possible effects at CCK receptors present in the tissue.
The preparation is washed twice over a 60 minute period then 10 mM KCl is added. At 90 minutes, test compounds (ie. potential antagonists) are added and a further 60 minute equilibration period allowed. After this time, cumulative agonist (e.g. pentagastrin) dose-response curves are constructed.

[4] = isolated mouse stomach assay, gastrin antagonism, standard errors less than 5%

Compound | pKB [1] | pKB mouse stomach (gastrin receptor [2]; [4]) | Acid seretion at 10^-5 M test compound, relative to pentagastrin (%) (gastrin receptor [2]) | pKB (gastrin receptor [3]) | Kb [1] [µM] | Kb (gastrin receptor [2]; isolated mouse stomach assay, gastrin antagonism, standard errors less than 5%, read-out: pKB mouse stomach (converted)) [µM] | Kb (gastrin receptor [3]) [µM]
CC(C)(C)OC(=O)N[C@@H](Cc1c[nH]c2ccccc12)C(=O)N[C@@H](Cc1ccc2ccccc2c1)C(=O)N[C@@H](CC(=O)O)C(=O)NCCc1ccc(Cl)c(Cl)c1 [Example 42, N-t-Butyloxycarbonyl-L-tryptophyl-L-3-(2-naphthyl)alanyl-L-aspartyl-3,4-dichlorophenethylamide] | 6.0 | 5.2 | 30 | 5.3 |  |  | 
CC(C)(C)OC(=O)N[C@@H](Cc1c[nH]c2ccccc12)C(=O)N[C@@H](Cc1ccc2ccccc2c1)C(=O)N[C@@H](CC(=O)O)C(=O)N[C@@H](Cc1ccccc1)C(N)=O [Example 1, N-t-Butyloxycarbonyl-L-tryptophyl-L-3-(2-naphthyl)alanyl-L-aspartyl-L-phenylalaninamide] (Boc-W[2Nal]DF-NH2) |  |  | 65 |  | 5.01 | 0.631 | 3.16
COc1ccc(CCNC(=O)[C@H](CC(=O)O)NC(=O)[C@H](Cc2ccc3ccccc3c2)NC(=O)[C@H](Cc2c[nH]c3ccccc23)NC(=O)OC(C)(C)C)cc1 [Example 10, N-t-Butyloxycarbonyl-L-tryptophyl-L-3-(2-naphthyl)alanyl-L-aspartyl-(4-methoxy)phenethylamide] | 7.2 | 6.0 |  | 5.9 |  |  | 
CC(C)(C)OC(=O)N[C@@H](Cc1c[nH]c2ccccc12)C(=O)N[C@@H](Cc1ccc2ccccc2c1)C(=O)N[C@@H](CC(=O)O)C(=O)N[C@@H]1CCC[C@H]1c1ccccc1 (single isomer, unassigned; diastereomer 1) [Example 31, N-t-Butyloxycarbonyl-L-tryptophyl-L-3-(2-naphthyl)alanyl-L-aspartyl-trans-2-phenylcyclopentylamide (diastereomer 1)] | 6.5 | 5.0 | 40 | 6.1 |  |  | 
N-t-Butyloxycarbonyl-L-tryptophyl-L-3-(2-naphthyl)alanyl-L-aspartylphenethylamide [Example 2] | 6.9 | 5.6 | 20 | 5.9 |  |  | 
COc1ccccc1CCNC(=O)[C@H](CC(=O)O)NC(=O)[C@H](Cc1ccc2ccccc2c1)NC(=O)[C@H](Cc1c[nH]c2ccccc12)NC(=O)OC(C)(C)C [Example 40, N-t-Butyloxycarbonyl-L-tryptophyl-L-3-(2-naphthyl)alanyl-L-aspartyl-2-methoxyphenethylamide] | 7.1 | 5.2 | 22 | 5.8 |  |  | 
COc1cccc(CCNC(=O)[C@H](CC(=O)O)NC(=O)[C@H](Cc2ccc3ccccc3c2)NC(=O)[C@H](Cc2c[nH]c3ccccc23)NC(=O)OC(C)(C)C)c1 [Example 56, N-t-Butyloxycarbonyl-L-tryptophyl-L-3-(2-naphthyl)alanyl-L-aspartyl-3-methoxyphenethylamide] | 7.2 | 5.6 |  | 5.5 |  |  | 
CC(C)(C)OC(=O)N[C@@H](Cc1c[nH]c2ccccc12)C(=O)N[C@@H](Cc1ccc2ccccc2c1)C(=O)N[C@@H](CC(=O)O)C(=O)NCCc1ccccc1F [Example 54, N-t-Butyloxycarbonyl-L-tryptophyl-L-3-(2-naphthyl)alanyl-L-aspartyl-2-fluorophenethylamide] | 6.4 | 5.4 | 25 | 6.2 |  |  | 
CC(C)(C)OC(=O)N[C@@H](Cc1c[nH]c2ccccc12)C(=O)N[C@@H](Cc1ccc2ccccc2c1)C(=O)N[C@@H](CC(=O)O)C(=O)N[C@@H]1CCC[C@@H]1c1ccccc1 (single isomer, unassigned; diastereomer 1) [Example 33, N-t-Butyloxycarbonyl-L-tryptophyl-L-3-(2-naphthyl)alanyl-L-aspartyl-cis-2-phenylcyclopentylamide (diastereomer 1)] | 7.0 | 5.2 |  | 6.2 |  |  | 
CC(C)(C)OC(=O)N[C@@H](Cc1c[nH]c2ccccc12)C(=O)N[C@@H](Cc1ccc2ccccc2c1)C(=O)N[C@@H](CC(=O)O)C(=O)NCCc1cccc(F)c1 [Example 65, N-t-Butyloxycarbonyl-L-tryptophyl-L-3-(2-naphthyl)alanyl-L-aspartyl-3-fluorophenethylamide] | 6.7 | 5.3 |  | 6.1 |  |  | 
CC(C)(C)OC(=O)N[C@@H](Cc1c[nH]c2ccccc12)C(=O)N[C@@H](Cc1ccc2ccccc2c1)C(=O)N[C@H](CC(=O)O)C(=O)NCCc1ccc(F)cc1 [Example 52, N-t-Butyloxycarbonyl-L-tryptophyl-L-3-(2-naphthyl)alanyl-D-aspartyl-4-fluorophenethylamide] | 6.4 | 5.6 | 25 | 5.9 |  |  | 
CC(C)(C)OC(=O)N[C@@H](Cc1c[nH]c2ccccc12)C(=O)N[C@@H](Cc1ccc2ccccc2c1)C(=O)N[C@@H](CC(=O)O)C(=O)NCCc1ccc(N)cc1 [Example 46, N-t-Butyloxycarbonyl-L-tryptophyl-L-3-(2-naphthyl)alanyl-L-aspartyl-4-aminophenethylamide] | 6.5 | 5.6 |  | 6.0 |  |  | 
CC(C)(C)OC(=O)N[C@@H](Cc1c[nH]c2ccccc12)C(=O)N[C@@H](Cc1ccc2ccccc2c1)C(=O)N[C@@H](CC(=O)O)C(=O)NCCc1ccc(F)cc1 [Example 47, N-t-Butyloxycarbonyl-L-tryptophyl-L-3-(2-naphthyl)alanyl-L-aspartyl-4-fluorophenethylamide] | 6.7 | 5.5 | 25 | 5.8 |  |  | 
